The text below walks through data of patent US12268901B2, “Targeting cell tropism receptors to inhibit cytomegalovirus infection” (priority 2017, dated 2025).

Entries after “also recorded” stand apart in the source; their conditions may differ.

Experiment [1] concerns TB40E virus infection of epithelial cell lines. Description: Peptide blocking assay, infection of several epithelial cell lines (percent GFP positive cells). Format: cell-based, Human cytomegalovirus (HCMV). The following applies: Peptide 1 100 μg/ml, MOI=2.0, 2 dpi. The protocol:
FIG. 10. […] Peptide 1 (100 μg/ml), or DMSO alone was preincubated with TB40E virus, followed by infection of the indicated epithelial cell lines (MOI=2.0). Cells were fixed and imaged for GFP and DNA at 2 dpi. […] Values indicate the mean percentage of infected cells of three experiments±SD. **p<0.01; ***p<0.001.
The noted synthetic peptides (100 ug/ml each or as described) were mixed with TB40E-GFP virus (1.2×10^6 PFU) and incubated at 37° C. for 2 h by rocking. The resulting samples were then subjected to the virus binding or infection assay.

The subject of experiment [2] is TB40E-GFP virus binding to ARPE19 cells. Description: Peptide blocking assay, cell-binding virus assay (viral DNA by qPCR). Format: cell-based, Human cytomegalovirus (HCMV). The note with it: different amounts of Peptide 1 preincubated with virus at 37° C. for 2 h, applied to ARPE19 cells at 4° C. for 2 h. The protocol:
The shPDGFRA, shOR14I1 and shDMBT1 transduced ARPE19 cells were chilled on ice for 20 min and then incubated with chilled TB40E-GFP at the indicated MOT on ice for 1 h. The cells were then washed ten times with cold PBS. Cellular DNA and cell-associated viral DNA were isolated using a DNeasy Blood & Tissue Kit (Qiagen). Viral DNA (UL83) and host DNA ((β-ACTIN) was quantified by real-time quantitative PCR as described (E et al., J Virol 88, 2279-2290 (2014)).
DNA was isolated from infected ARPE cells using the Dneasy Blood and Tissue DNA mini kit (Qiagen) according to the manufacturer's instructions. Viral genomes were quantified with a primer pair (pp549s and pp812as) and a probe (pp770s) for UL83 (3), and the number of viral genomes normalized to the number of cellular copies of β-ACTIN with a previously described set of primers and probe (4). Unknown sample values were determined on the basis of a standard curve of known copy numbers of UL83 (AD169-BAC) and β-ACTIN (pAB1-bactin-PCRscript) (kind gifts from Donald Coen, Harvard Medical School). […] Real-time PCR was performed and analyzed by using a ViiA7 Real-Time PCR System (Applied Biosystems). […]
Viral binding to ARPE19 cells was evaluated in the presence of Sf9-OR14I1 membrane particles. […] After washing with cold PBS, viral DNA levels were quantified by qPCR. […] After cold PBS washing, viral DNA levels were quantified by qPCR. […]
(In qPCR the cycle at which signal appears reflects the starting amount.)

Experiment [3] concerns Akt phosphorylation in ARPE19 cells. Description: PI3/Akt signaling induced by virus binding (immunoblot phospho Akt ser473). Format: cell-based. The following applies: Peptide 1 100 ug/ml preincubated with virus at 37° C. for 2 h, ARPE19, 30 minutes post infection. The protocol: FIGS. 8A-C. […] (A) Cells were serum starved at 37° C. for overnight and cells were pretreated with DMSO (control), LY294002 (50 uM) in serum-free medium prior to infection for two hours. Plated cells were cooled on ice for 30 mins. Cells were infected by purified TB40E-GFP virus (no serum) at MOI of 2.0 PFU per cell for 2 hours on ice. Cell plates were then shifted to 37° C. incubator (time 0). Cells were harvested at 0, 5, 10 mins post infection. Protein extracts were subjected to immunoblotting with anti-phospho Akt (ser473), Akt or anti-β-actin (loading control). (B) ARPE19 epithelial sgCon and sgOR14I1 knock out cells were serum starved at 37° C. for overnight. Plated cells were cooled on ice for 30 mins. Cells were infected by purified TB40E-GFP virus (no serum) at MOI of 2.0 PFU per cell for 2 hours on ice. Cell plates were then shifted to 37° C. incubator (time 0). Cell were harvested at 0, 5 mins post infection. (C) Peptide 1 (100 ug/ml) was preincubated with TB40E-GFP virus at 37° C. for 2 h and the mixture applied to ARPE19 cells. The phosphorylation of Akt and total Akt were detected 30 minutes post infection of TB40E-GFP.
Cells were serum starved at 37° C. for overnight and cells were pretreated with DMSO (DMSO-carrier control) or LY294002 (50 uM) in serum-free medium prior to infection for two hours. Cell plates were cooled on ice for 30 mins. […]

“MDNLTKVTEFLLMEFSGIWELQVLHA (N-terminal fragment of OR14I1) [Peptide 1, synthetic peptide representing the N-terminus of OR14I1, position 1-26]”: in experiment [1], the “PC+ virus infection of multiple epithelial cell lines (percent GFP positive cells)” value was “prevented PC+ virus infection; also recorded: inhibits HCMV infection of several epithelial cell lines”. Further, the “TB40E-GFP virus binding to ARPE19 cells (viral DNA by qPCR)” value in experiment [2] is “sufficient to prevent for TB40E-GFP virus binding ARPE19 cells”. Further, the “Akt phosphorylation induced by HCMV infection” value in experiment [3] is “abolished”.
